Experimental data taken from publication PMC4332668, “Characterization of a Novel PQQ-Dependent Quinohemoprotein Pyranose Dehydrogenase from Coprinopsis cinerea Classified into Auxiliary Activities Family 12 in Carbohydrate-Active Enzymes” (PLoS ONE, 2015).

Biological target: T1, DHPDH (Coprinopsis cinerea, UniProt A8P0V4)
T1 construct: gene PDH; isolated PQQ (AA12) dehydrogenase domain, residues 240-649, recombinant from Pichia pastoris, purified as apo-form
T1 sequence (A8P0V4 240-649): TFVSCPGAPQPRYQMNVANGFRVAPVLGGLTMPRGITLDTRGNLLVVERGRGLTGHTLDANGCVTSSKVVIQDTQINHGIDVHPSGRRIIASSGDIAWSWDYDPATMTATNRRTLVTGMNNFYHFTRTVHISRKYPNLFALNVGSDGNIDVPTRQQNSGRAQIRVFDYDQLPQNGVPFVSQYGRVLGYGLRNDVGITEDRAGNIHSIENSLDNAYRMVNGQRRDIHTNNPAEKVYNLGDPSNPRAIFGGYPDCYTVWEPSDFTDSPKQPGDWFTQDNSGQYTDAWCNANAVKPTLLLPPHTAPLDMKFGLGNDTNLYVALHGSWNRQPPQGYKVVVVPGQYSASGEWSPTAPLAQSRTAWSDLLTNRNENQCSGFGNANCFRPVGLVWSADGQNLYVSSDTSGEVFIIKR
Assay: UV-vis spectral reduction of PQQ; PMS/DCPIP assay
Format: biochemical
Conditions: holo-form; 1 mM L-fucose; 50 mM HEPES pH 7.0; 1 mM CaCl2; room temperature (spectra)

## C[C@@H]1OC(O)[C@@H](O)[C@H](O)[C@@H]1O (stereo partly drawn) [L-fucose]
  UV-vis spectral reduction of PQQ; PMS/DCPIP assay: The addition of L-fucose resulted in the reduction of PQQ
